Data on 19 compounds can be found in patent publication US10781211B2, “Spirocycle compounds and methods of making and using same” (Lundbeck La Jolla Research Center, Inc., priority 2016, dated 2020).

For one assay, the target named is FAAH (Mus musculus (Mouse), UniProt O08914). Briefly: Mouse brain proteomes from inhibitor treated mice (oral gavage, sacrifice 4 h after administration, ABPP analysis), FAAH. The format is in vivo. The conditions noted are these: 5 mg/kg oral gavage. As for the experimental part:
(§1) Preparation of Mouse Brain Proteomes from Inhibitor Treated Mice.
(§2) Inhibitors were administered to wild-type C57Bl/6J by oral gavage in a vehicle, e.g. PEG400/Ethanol/PBS (7/2/1). Each animal was sacrificed 4 h following administration and brain proteomes were prepared and analyzed according to previously established methods (See Niphakis, M. J., et al. (2011) ACS Chem. Neurosci. and Long, J. Z., et al. Nat. Chem. Biol. 5:37-44). Data from this assay is shown in Table 2 (% inhibition at 5 mg/kg).

The target in the next assay is ABHD6 (Mus musculus (Mouse), UniProt Q8R2Y0). Briefly: Mouse brain proteomes from inhibitor treated mice (oral gavage, sacrifice 4 h after administration, ABPP analysis), ABHD6. The format is in vivo. The conditions noted are these: 5 mg/kg oral gavage. On the procedure: as §1, §2
ABHD6, sequence (Q8R2Y0 whole entry): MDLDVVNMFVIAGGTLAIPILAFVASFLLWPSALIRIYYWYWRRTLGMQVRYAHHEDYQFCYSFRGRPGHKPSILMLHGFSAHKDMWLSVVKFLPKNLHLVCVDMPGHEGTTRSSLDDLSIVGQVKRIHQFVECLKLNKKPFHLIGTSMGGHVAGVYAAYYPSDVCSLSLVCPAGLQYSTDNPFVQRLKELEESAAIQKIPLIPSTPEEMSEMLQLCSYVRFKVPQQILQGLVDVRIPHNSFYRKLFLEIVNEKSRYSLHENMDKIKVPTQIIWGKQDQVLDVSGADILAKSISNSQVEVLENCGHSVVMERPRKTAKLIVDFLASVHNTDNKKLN

FAAH, sequence (O08914 whole entry): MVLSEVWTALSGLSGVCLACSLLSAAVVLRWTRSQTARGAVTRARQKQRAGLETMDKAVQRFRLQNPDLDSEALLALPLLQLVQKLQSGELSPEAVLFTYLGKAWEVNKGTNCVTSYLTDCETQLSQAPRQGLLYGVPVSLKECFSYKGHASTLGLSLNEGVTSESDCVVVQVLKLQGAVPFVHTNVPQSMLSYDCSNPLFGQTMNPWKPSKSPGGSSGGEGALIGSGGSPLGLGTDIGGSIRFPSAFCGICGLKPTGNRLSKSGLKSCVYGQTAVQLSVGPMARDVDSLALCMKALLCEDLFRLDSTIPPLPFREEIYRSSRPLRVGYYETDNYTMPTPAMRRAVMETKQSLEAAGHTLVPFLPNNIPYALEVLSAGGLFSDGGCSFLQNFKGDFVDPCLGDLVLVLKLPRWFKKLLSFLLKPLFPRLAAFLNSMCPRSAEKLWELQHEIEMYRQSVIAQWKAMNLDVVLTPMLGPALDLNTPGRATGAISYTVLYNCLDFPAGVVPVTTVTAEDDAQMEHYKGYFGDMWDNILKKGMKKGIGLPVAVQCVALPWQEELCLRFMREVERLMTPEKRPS

Consider `O=C(OC(C(F)(F)F)C(F)(F)F)N1CCC2(CCCN2Cc2ccc(C(F)(F)F)cc2N2CCCC2)CC1` [Example 66, 1,1,1,3,3,3-Hexafluoropropan-2-yl 1-(2-(pyrrolidin-1-yl)-4-(trifluoromethyl)benzyl)-1,8-diazaspiro[4.5]decane-8-carboxylate], for which the “FAAH % Inh 5 mg/kg (mouse)” value on FAAH is recorded as “# (# is < 25%)”. Moreover, the “ABHD6 % Inh 5 mg/kg (mouse)” value on ABHD6 is “# (# is < 25%)”.
`O=C(OC(C(F)(F)F)C(F)(F)F)N1CCC2(CCN(Cc3ccc(C(F)(F)F)cc3N3CC4COCC4C3)C2)CC1` (stereo not drawn) [Example 26, 1,1,1,3,3,3-Hexafluoropropan-2-yl 2-(2-(tetrahydro-1H-furo[3,4-c]pyrrol-5(3H)-yl)-4-(trifluoromethyl)benzyl)-2,8-diazaspiro[4.5]decane-8-carboxylate]: the “FAAH % Inh 5 mg/kg (mouse)” value on FAAH is listed as “# (# is < 25%)”. For the same compound, the “ABHD6 % Inh 5 mg/kg (mouse)” value on ABHD6 is “# (# is < 25%)”.
Turning to `O=C(OC(C(F)(F)F)C(F)(F)F)N1CCC2(CCN(Cc3cccc(Cl)c3N3CCC(F)CC3)C2)CC1` [Example 65, 1,1,1,3,3,3-Hexafluoropropan-2-yl 2-(3-chloro-2-(4-fluoropiperidin-1-yl)benzyl)-2,8-diazaspiro[4.5]decane-8-carboxylate], the “FAAH % Inh 5 mg/kg (mouse)” value at FAAH is “# (# is < 25%)”.
Turning to `O=C(OC(C(F)(F)F)C(F)(F)F)N1CCC2(CCCN2Cc2ccc(Cl)cc2N2CCN(CCF)CC2)CC1` [Example 19, 1,1,1,3,3,3-Hexafluoropropan-2-yl 1-(4-chloro-2-(4-(2-fluoroethyl)piperazin-1-yl)benzyl)-1,8-diazaspiro[4.5]decane-8-carboxylate], the “FAAH % Inh 5 mg/kg (mouse)” value at FAAH is “# (# is < 25%)”. The “ABHD6 % Inh 5 mg/kg (mouse)” value at ABHD6 is recorded as “# (# is < 25%)”.
In the case of `O=C(O)[C@@H]1CCCN(c2cc(C(F)(F)F)ccc2CN2CCC3(CCN(C(=O)OC(C(F)(F)F)C(F)(F)F)CC3)C2)C1` [Example 211], the “FAAH % Inh 5 mg/kg (mouse)” value at FAAH is on record as “# (# is < 25%)”. The “ABHD6 % Inh 5 mg/kg (mouse)” value at ABHD6 was “# (# is < 25%)”.
In the case of `O=C(OC(C(F)(F)F)C(F)(F)F)N1CCC2(CCN(Cc3ccc(C(F)(F)F)cc3N3CCCCC3)C2)CC1` [Example 23, 1,1,1,3,3,3-Hexafluoropropan-2-yl 2-(2-(piperidin-1-yl)-4-(trifluoromethyl)benzyl)-2,8-diazaspiro[4.5]decane-8-carboxylate], at FAAH, the “FAAH % Inh 5 mg/kg (mouse)” value is “# (# is < 25%)”. Moreover, at ABHD6, the “ABHD6 % Inh 5 mg/kg (mouse)” value is listed as “# (# is < 25%)”.
On to `CC1(C(=O)O)CCN(c2cc(C(F)(F)F)ccc2CN2CCCC23CCN(C(=O)OC(C(F)(F)F)C(F)(F)F)CC3)C1` (stereo not drawn) [Example 230], for which the “FAAH % Inh 5 mg/kg (mouse)” value on FAAH is “# (# is < 25%)”. The “ABHD6 % Inh 5 mg/kg (mouse)” value at ABHD6 is “# (# is < 25%)”.
Consider `O=C(OC(C(F)(F)F)C(F)(F)F)N1CCC2(CCN(Cc3ccc(C(F)(F)F)cc3N3CCCC3)C2)CC1` [Example 72, 1,1,1,3,3,3-Hexafluoropropan-2-yl 2-(2-(pyrrolidin-1-yl)-4-(trifluoromethyl)benzyl)-2,8-diazaspiro[4.5]decane-8-carboxylate], for which the “FAAH % Inh 5 mg/kg (mouse)” value at FAAH is recorded as “# (# is < 25%)”. Moreover, on ABHD6, the “ABHD6 % Inh 5 mg/kg (mouse)” value is “# (# is < 25%)”.
`O=C(OC(C(F)(F)F)C(F)(F)F)N1CCC2(CCCN2Cc2ccc(Cl)cc2N2CCCCC2)CC1` [Example 74, 1,1,1,3,3,3-Hexafluoropropan-2-yl 1-(4-chloro-2-(piperidin-1-yl)benzyl)-1,8-diazaspiro[4.5]decane-8-carboxylate]: the “FAAH % Inh 5 mg/kg (mouse)” value on FAAH is recorded as “# (# is < 25%)”. Besides, on ABHD6, the “ABHD6 % Inh 5 mg/kg (mouse)” value is “# (# is < 25%)”.
Take `O=C(O)C1CCN(c2cc(C(F)(F)F)ccc2CN2CCCC23CCN(C(=O)OC(C(F)(F)F)C(F)(F)F)CC3)C1` (stereo not drawn) [Example 199]: the “FAAH % Inh 5 mg/kg (mouse)” value on FAAH is recorded as “# (# is < 25%)”. In addition, the “ABHD6 % Inh 5 mg/kg (mouse)” value at ABHD6 is given as “# (# is < 25%)”.
Turning to `CC1(C)CC2(CCN(C(=O)OC(C(F)(F)F)C(F)(F)F)CC2)CN1Cc1ccc(Cl)cc1N1CCOCC1` [Example 50, 1,1,1,3,3,3-Hexafluoropropan-2-yl 2-(4-chloro-2-morpholinobenzyl)-3,3-dimethyl-2,8-diazaspiro[4.5]decane-8-carboxylate], the “FAAH % Inh 5 mg/kg (mouse)” value at FAAH is listed as “# (# is < 25%)”. The “ABHD6 % Inh 5 mg/kg (mouse)” value on ABHD6 is reported as “# (# is < 25%)”.
For `O=C(OC(C(F)(F)F)C(F)(F)F)N1CCC2(CCN(Cc3cccc(Cl)c3N3CCC(F)(F)CC3)C2)CC1` [Example 64, 1,1,1,3,3,3-Hexafluoropropan-2-yl 2-(3-chloro-2-(4,4-difluoropiperidin-1-yl)benzyl)-2,8-diazaspiro[4.5]decane-8-carboxylate], the “FAAH % Inh 5 mg/kg (mouse)” value on FAAH was “# (# is < 25%)”. On ABHD6, the “ABHD6 % Inh 5 mg/kg (mouse)” value is reported as “# (# is < 25%)”.
Regarding `O=C(OC(C(F)(F)F)C(F)(F)F)N1CCC2(CCCN2Cc2cc(N3CCC(F)CC3)cc(C(F)(F)F)c2)CC1` [Example 45, 1,1,1,3,3,3-Hexafluoropropan-2-yl 1-(3-(4-fluoropiperidin-1-yl)-5-(trifluoromethyl)benzyl)-1,8-diazaspiro[4.5]decane-8-carboxylate], on FAAH, the “FAAH % Inh 5 mg/kg (mouse)” value is on record as “# (# is < 25%)”. Moreover, on ABHD6, the “ABHD6 % Inh 5 mg/kg (mouse)” value was “# (# is < 25%)”.
As to `CS(=O)(=O)C1CN(c2cc(C(F)(F)F)ccc2CN2CCCC23CCN(C(=O)OC(C(F)(F)F)C(F)(F)F)CC3)C1` [Example 268], the “FAAH % Inh 5 mg/kg (mouse)” value on FAAH is listed as “# (# is < 25%)”.
Regarding `CC1(C)CC2(CCN(C(=O)OC(C(F)(F)F)C(F)(F)F)CC2)CN1Cc1cccc(Cl)c1N1CCOCC1` [Example 54, 1,1,1,3,3,3-Hexafluoropropan-2-yl 2-(3-chloro-2-morpholinobenzyl)-3,3-dimethyl-2,8-diazaspiro[4.5]decane-8-carboxylate], on FAAH, the “FAAH % Inh 5 mg/kg (mouse)” value was “# (# is < 25%)”. Besides, the “ABHD6 % Inh 5 mg/kg (mouse)” value on ABHD6 is “# (# is < 25%)”.
For the compound `O=C(OC(C(F)(F)F)C(F)(F)F)N1CCC2(CCCN2Cc2cc(OC3CCOCC3)cc(C(F)(F)F)c2)CC1` [Example 170, 1,1,1,3,3,3-Hexafluoropropan-2-yl 1-(3-(tetrahydro-2H-pyran-4-yloxy)-5-(trifluoromethyl)benzyl)-1,8-diazaspiro[4.5]decane-8-carboxylate], at FAAH, the “FAAH % Inh 5 mg/kg (mouse)” value is “# (# is < 25%)”. The “ABHD6 % Inh 5 mg/kg (mouse)” value at ABHD6 is “# (# is < 25%)”.
Take `O=C(OC(C(F)(F)F)C(F)(F)F)N1CCC2(CCCN2Cc2ccc(C(F)(F)F)cc2N2CCCCC2)CC1` [Example 78, 1,1,1,3,3,3-Hexafluoropropan-2-yl 1-(2-(piperidin-1-yl)-4-(trifluoromethyl)benzyl)-1,8-diazaspiro[4.5]decane-8-carboxylate]: the “FAAH % Inh 5 mg/kg (mouse)” value at FAAH is “# (# is < 25%)”. Besides, at ABHD6, the “ABHD6 % Inh 5 mg/kg (mouse)” value is on record as “# (# is < 25%)”.
As for `O=C(OC(C(F)(F)F)C(F)(F)F)N1CCC2(CCN(Cc3ccc(Cl)cc3N3CCCC3)C2)CC1` [Example 17, 1,1,1,3,3,3-Hexafluoropropan-2-yl 2-(4-chloro-2-(pyrrolidin-1-yl)benzyl)-2,8-diazaspiro[4.5]decane-8-carboxylate], the “FAAH % Inh 5 mg/kg (mouse)” value on FAAH is given as “# (# is < 25%)”. Moreover, at ABHD6, the “ABHD6 % Inh 5 mg/kg (mouse)” value was “# (# is < 25%)”.
On to `O=C(OC(C(F)(F)F)C(F)(F)F)N1CCC2(CCCN2Cc2ccc(C(F)(F)F)cc2N2CC3CCC(C2)O3)CC1` [Example 73, 1,1,1,3,3,3-Hexafluoropropan-2-yl 1-(2-(8-oxa-3-azabicyclo[3.2.1]octan-3-yl)-4-(trifluoromethyl)benzyl)-1,8-diazaspiro[4.5]decane-8-carboxylate], for which the “FAAH % Inh 5 mg/kg (mouse)” value on FAAH is listed as “# (# is < 25%)”. Also, the “ABHD6 % Inh 5 mg/kg (mouse)” value at ABHD6 is recorded as “# (# is < 25%)”.
